Data: ChEMBL document CHEMBL1157243, “The sapogenin atroviolacegenin and its diglycoside atroviolaceoside from Allium atroviolaceum” (2006)
Activity calls are given as the source filed them. The calls are words filed in the database; no cut-off is given here.

These compounds were tested on Ileum (assay: Antispasmodic activity in guinea pig ileum assessed as inhibition of histamine-induced tissue contraction at 10^-8 to 10^-5 M after 30 mins). Conditions: not given.
Format: functional, Cavia porcellus

Point of comparison: `C[C@H](CC[C@]1(O)O[C@H]2C[C@H]3[C@@H]4CC=C5C[C@@H](O)C[C@@H](O[C@@H]6OC[C@@H](O)[C@H](O)[C@H]6O)[C@]5(C)[C@H]4CC[C@]3(C)[C@H]2[C@@H]1C)CO[C@@H]1O[C@H](C)[C@@H](O)[C@H](O)[C@@H]1O` [TROPEOSIDE B2], “inhibition (INH)” value 50%. Against it:
- C[C@H]1[C@H]2[C@H](C[C@H]3[C@@H]4C[C@@H](O)[C@H]5C[C@@H](O[C@@H]6O[C@H](CO)[C@H](O[C@@H]7O[C@H](CO)[C@@H](O)[C@H](O)[C@H]7O)[C@H](O)[C@H]6O)[C@H](O)C[C@]5(C)[C@H]4CC[C@]23C)O[C@]12CC[C@@H](CO)CO2 [ATROVIOLACEOSIDE] — lower, 0%
- C[C@H](CC[C@@]1(O)O[C@H]2C[C@H]3[C@@H]4CC=C5C[C@@H](O)C[C@@H](O[C@@H]6O[C@H](CO)[C@H](O)[C@H](O)[C@H]6O)[C@]5(C)[C@H]4CC[C@]3(C)[C@H]2[C@@H]1C)CO[C@@H]1O[C@H](C)[C@@H](O)[C@H](O)[C@@H]1O [TROPEOSIDE A1] — the same, 50%
- C[C@H](CC[C@]1(O)O[C@H]2C[C@H]3[C@@H]4CC=C5C[C@@H](O)C[C@@H](O[C@@H]6O[C@H](CO)[C@H](O)[C@H](O)[C@H]6O)[C@]5(C)[C@H]4CC[C@]3(C)[C@H]2[C@@H]1C)CO[C@@H]1O[C@H](C)[C@@H](O)[C@H](O)[C@@H]1O [TROPEOSIDE A2] — the same, 50%
- C[C@H](CC[C@@]1(O)O[C@H]2C[C@H]3[C@@H]4CC=C5C[C@@H](O)C[C@@H](O[C@@H]6OC[C@@H](O)[C@H](O)[C@H]6O)[C@]5(C)[C@H]4CC[C@]3(C)[C@H]2[C@@H]1C)CO[C@@H]1O[C@H](C)[C@@H](O)[C@H](O)[C@@H]1O [TROPEOSIDE B1] — the same, 50%

Same assay, conditions: Cavia porcellus

`C[C@H]1[C@H]2[C@H](C[C@H]3[C@@H]4C[C@@H](O)[C@H]5C[C@@H](O)[C@H](O)C[C@]5(C)[C@H]4CC[C@]23C)O[C@]12CCC(CO)CO2` (single isomer, unassigned) was tested, and the Activity was “inactive”.
